The results in this text go back to patent publication US11299524B2, “KIF13B-derived peptide and method of inhibiting angiogenesis” (THE BOARD OF TRUSTEES OF THE UNIVERSITY OF ILLINOIS, priority 2016, dated 2022).

Assay [1] relates to HUVECs. The assay can be described thus: scratch wound healing assay. It counts as cell-based, human. As for the experimental part: (§1) Collagen invasion assay was performed as previously described (Kang, et al. (2011) J. Biol. Chem. 286:42017-26). In vitro capillary network formation on […] (BD Biosciences, San Jose, Calif.) and scratch wound healing assay were performed as previously described (Humtsoe, et al. (2010) Mol. Cell Biol. 30:1593-1606). Fibrin gel sprouting assay was performed as described by Nakatsu & Hughes ((2008) Methods Enzymol. 443:65-82). VEGF (2.2 nmol/L) stimulation was used for all in vitro angiogenesis assays. Transwell migration assay was performed as described by Kaplan, et al. ((2011) Free Radical Res. 45:1124-35) using VEGF (4.4 nmol/L), sphingosine-1-phosphate (S1P) (1 μmol/L), or basic fibroblast growth factor (bFGF) (50 ng/mL) in the presence or absence of kinesin-derived angiogenesis inhibitor (DUF2C5; residues 1238-1260 of KIF13B) at varying concentrations.
(§2) EC migration in response to DUF2C5 was determined using the scratch wound healing assay. […] The […] migration assay was also employed to determine whether the inhibitory effect of DUF2C5 on EC migration was specific to VEGF. HUVECs were placed in the […] chamber with or without DUF2C5 or CT23. […] PBS and CT23 had no effect on EC migration induced by all stimuli.

Assay [2] relates to HUVECs. The assay can be described thus: VEGF-induced capillary network formation on […] in vitro. It counts as cell-based, human. The settings on record: synthetic peptide added. As to the method:
as §1
To test the bioactivity of the truncated mutant of KIF13B, DUF2C was expressed by lentivirus vector in HUVECs. […] The collagen invasion system (Kang, et al. (2011) J. Biol. Chem. 286:42017-42026) was used as another angiogenesis assay to test the peptides. After infection with control lentivirus, FLAG-DUF2C, or FLAG-DUF2, HUVECs were seeded on collagen gels. Cell invasion in response to proangiogenic stimuli SIP and VEGF in the gel was monitored for up to 24 hours.
Bioactivities in two-dimensional capillary network formation assay were assessed in HUVECs expressing KIF13B truncated mutants or vector controls. HUVECs were infected with lentiviruses encoding FLAG-C2, -C3, -C5, -C8, -C9, or vector.
(§3) Changes in VEGF-induced network formation assay were assessed in […] plugs. […] VEGF-induced EC sprouting was also determined by 3-dimensional culture of HUVECs on beads (Nakatsu & Hughes (2008) Methods Enzymol. 443:65-82).

Assay [3] relates to HUVECs. Put plainly: fibrin gel sprouting assay (3-dimensional culture of HUVECs on beads). It counts as cell-based, human. The following applies: 1 μmol/L, VEGF-induced EC sprouting. As for the experimental part:
as §1, §3

The target in the next assay is VEGFR2 (Homo sapiens, UniProt P35968). The assay can be described thus: pull-down binding assay with endogenous VEGFR2 from HUVEC lysates. Details: endogenous in cells; host or cells: HUVEC. The following applies: HUVEC lysate, anti-VEGFR2 western blot. From the text: Truncated mutants of KIF13B were expressed in BL21 (DE3) or Rosetta-gami and purified as previously described (Yamada, et al. (2014) J. Cell Sci. 127:4518-30; Yamada, et al. (2007) Biochemistry 46:10039-45).
Using recombinant proteins, the binding sites on KIF13B mediating the interaction with VEGFR2 were identified. KIF13B has a motor, forkhead-associated, membrane-associated guanylate kinase-binding stalk, 2 domains of unknown function (DUFs) (DUF3694), and a proline-rich and cytoskeleton-associated protein glycine-rich domain. The DUFs were identified from amino acid sequence similarity on the Pfam database. It has been previously shown that both domains of DUF3694 directly bind recombinant VEGFR2 in vitro (Yamada, et al. (2007) Biochemistry 46:10039-45). To define the specific peptide sequence inhibiting VEGFR2 trafficking, further analysis of the second DUF3694 domain (DUF2, residues 1112-1281 of KIF13B) was carried out. This was based on stability of this domain and a sequence distinct from binding sites for other cargoes of KIF13B (Horiguchi, et al. (2006) J. Cell Biol. 174:425-436; Hanada, et al. (2000) J. Biol. Chem. 275:28774-2878). DUF2 was divided into 3 parts, DUF2A (residues […]), DUF2B (residues 1168-1216), and DUF2C (residues 1217-1281) and each part was expressed as a recombinant protein in bacteria. VEGFR2 was abundantly expressed in HUVECs; thus, cell lysate from HUVECs was incubated with these recombinant proteins on beads, and VEGFR2 binding was determined using the anti-VEGFR2 antibody.
To identify the minimum binding site on VEGFR2, DUF2C was further truncated (DUF2C1-9) (FIG. 1). […] Stability of the C5 peptide was attributed to the 4-6 C-terminal residues. Accordingly, replacing these C-terminal residues with another a peptide, one or more post-translational modifications, one or more non-natural amino acid residues, a macromolecule such as PEG, or a combination thereof, is expected to stabilize the KAI peptide.
Initially, peptide interaction with VEGFR2 was confirmed using the pull-down assay.
To further define the KIF13B residues involved in binding to VEGFR2, truncations of the DUF2C5 peptide were tested for binding to VEGFR2 (Table 3) and compared to binding of DUF2C5 and peptides flanking this region (FIG. 1).

The subject of assay [4] is HUVECs. Put plainly: […] migration assay. The settings on record: TRANSWELL
Format: cell-based, human. As to the method:
Specificity of the inhibitory effect of DUF2C5 was determined by EC migration induced by different stimuli in a […] migration assay. HUVECs migrated toward 2.2 nmol/L VEGF, 50 ng/mL basic fibroblast growth factor (bFGF), or 1 μmol/L sphingosine-1-phosphate (S1P) were visualized by hematoxylin staining, and number of migrated cells were counted. Data are expressed as means±SEM. N=3. *P<0.05 (one-way analysis of variance and Bonferroni multiple comparisons test).
as §1, §2

Sequence of VEGFR2 (P35968 20-1356): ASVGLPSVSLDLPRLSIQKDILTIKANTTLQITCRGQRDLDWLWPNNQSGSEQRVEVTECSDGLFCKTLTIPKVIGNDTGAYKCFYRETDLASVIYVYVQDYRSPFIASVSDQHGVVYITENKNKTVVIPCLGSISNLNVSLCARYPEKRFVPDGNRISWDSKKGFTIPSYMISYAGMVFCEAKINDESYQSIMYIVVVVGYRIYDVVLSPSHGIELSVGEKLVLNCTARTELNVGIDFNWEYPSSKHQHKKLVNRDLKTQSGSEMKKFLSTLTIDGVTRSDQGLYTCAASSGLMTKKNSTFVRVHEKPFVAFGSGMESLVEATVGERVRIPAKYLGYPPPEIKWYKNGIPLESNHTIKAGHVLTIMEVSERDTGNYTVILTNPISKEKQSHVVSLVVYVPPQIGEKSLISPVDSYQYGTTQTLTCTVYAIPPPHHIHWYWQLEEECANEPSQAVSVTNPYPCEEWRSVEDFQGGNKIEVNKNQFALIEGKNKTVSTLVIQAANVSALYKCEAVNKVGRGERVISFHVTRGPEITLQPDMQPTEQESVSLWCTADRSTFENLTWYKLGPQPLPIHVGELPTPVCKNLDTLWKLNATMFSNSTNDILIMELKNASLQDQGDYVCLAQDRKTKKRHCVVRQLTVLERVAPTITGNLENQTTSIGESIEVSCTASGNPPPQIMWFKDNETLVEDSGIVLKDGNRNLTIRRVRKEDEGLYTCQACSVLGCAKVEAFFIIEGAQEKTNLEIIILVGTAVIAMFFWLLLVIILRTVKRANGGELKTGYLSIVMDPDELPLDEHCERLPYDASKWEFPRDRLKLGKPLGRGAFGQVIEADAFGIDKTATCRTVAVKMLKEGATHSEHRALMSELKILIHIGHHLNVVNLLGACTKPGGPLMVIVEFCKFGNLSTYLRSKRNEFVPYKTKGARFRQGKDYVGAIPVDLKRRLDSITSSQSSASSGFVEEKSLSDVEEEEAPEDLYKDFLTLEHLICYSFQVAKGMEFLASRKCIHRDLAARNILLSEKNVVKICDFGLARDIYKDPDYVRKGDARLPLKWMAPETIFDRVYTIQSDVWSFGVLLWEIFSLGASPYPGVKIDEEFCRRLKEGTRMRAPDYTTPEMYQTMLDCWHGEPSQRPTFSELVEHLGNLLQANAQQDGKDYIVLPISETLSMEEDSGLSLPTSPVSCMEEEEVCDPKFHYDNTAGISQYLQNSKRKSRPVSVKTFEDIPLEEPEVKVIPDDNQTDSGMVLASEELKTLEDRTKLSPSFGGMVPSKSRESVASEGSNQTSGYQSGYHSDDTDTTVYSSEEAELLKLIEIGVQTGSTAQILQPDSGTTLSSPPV

In the case of “CT23: negative control, C-terminal 23-amino acid peptide, residues 1650 to 1672 of KIF13B (RVRASELRSFSRMLAGDPGCSPG)”, the “VEGF-induced migration of HUVECs (wound closure)” value with HUVECs [1] is “migrated and closed the wound”. Besides, the VEGF-induced network formation entry with HUVECs [2] is listed as “had no effect”. In the assay with HUVECs [3], the “number of branching point structures per bead” value is on record as 4-6 branches and the “number of sprouts per bead” value is recorded as 13-16 sprouts. Further, the VEGFR2 binding result in the assay with VEGFR2 is reported as “did not interact with VEGFR2”. For the same substance, the “bFGF-induced EC migration” value in the assay on HUVECs [4] (stimulus 50 ng/mL bFGF) is reported as “had no effect”. The “S1P-induced EC migration” value in the assay with HUVECs [4] (stimulus 1 μmol/L S1P) was “had no effect”. In addition, the “VEGF-induced EC migration” value in the assay on HUVECs [4] (stimulus VEGF) is given as “had no effect”.
